US7994209B2, “3-phenoxymethylpyrrolidine compounds” (Theravance, Inc., priority 2009, dated 2011)
pKi: −log10 of the molar value.

Tests used:
hSERT [1] = molecular target: T1, hSERT (Homo sapiens, UniProt P31645); experiment: hSERT membrane radioligand binding assay (3H-citalopram), Assay 1; details: SERT pKi, hSERT HEK-293 membranes, 1.0 nM 3H-citalopram; values given as lower bounds
hNET [2] = molecular target: T2, hNET (Homo sapiens, UniProt P23975); experiment: fluorescence-based norepinephrine reuptake inhibition assay (Tsuruda et al. 2010; data indicated by an asterisk); type: cell-based; set-up: expressed in transfected cells; host or cells: HEK-293; details: norepinephrine reuptake inhibition, fluorescence-based assay (values with asterisk); read-out: NET pIC50 (converted)
T2 sequence (P23975 whole entry): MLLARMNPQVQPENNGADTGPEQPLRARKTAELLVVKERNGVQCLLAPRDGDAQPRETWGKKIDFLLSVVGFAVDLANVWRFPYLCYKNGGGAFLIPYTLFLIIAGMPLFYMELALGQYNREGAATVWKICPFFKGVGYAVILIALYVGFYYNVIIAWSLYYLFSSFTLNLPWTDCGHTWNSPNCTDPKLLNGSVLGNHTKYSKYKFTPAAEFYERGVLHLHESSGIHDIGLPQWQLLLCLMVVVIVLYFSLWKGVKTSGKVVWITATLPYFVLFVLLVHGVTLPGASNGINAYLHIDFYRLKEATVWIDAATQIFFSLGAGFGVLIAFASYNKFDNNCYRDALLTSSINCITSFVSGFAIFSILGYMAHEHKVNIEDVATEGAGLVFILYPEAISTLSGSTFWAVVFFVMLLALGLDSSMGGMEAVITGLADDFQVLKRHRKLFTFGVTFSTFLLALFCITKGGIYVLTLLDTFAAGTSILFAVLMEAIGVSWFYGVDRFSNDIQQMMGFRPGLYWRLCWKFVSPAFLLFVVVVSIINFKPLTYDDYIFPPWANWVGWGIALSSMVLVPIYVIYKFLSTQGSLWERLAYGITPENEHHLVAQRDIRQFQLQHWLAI

hSERT [3] = molecular target: T1, hSERT; experiment: fluorescence-based serotonin reuptake inhibition assay (Tsuruda et al. 2010; data indicated by an asterisk); type: cell-based; set-up: expressed in transfected cells; host or cells: HEK-293; details: fluorescence-based assay (values with asterisk), read-out: SERT pIC50 (converted)
hNET [4] = molecular target: T2, hNET; experiment: hNET membrane radioligand binding assay (3H-nisoxetine), Assay 1

T1 sequence (P31645 whole entry): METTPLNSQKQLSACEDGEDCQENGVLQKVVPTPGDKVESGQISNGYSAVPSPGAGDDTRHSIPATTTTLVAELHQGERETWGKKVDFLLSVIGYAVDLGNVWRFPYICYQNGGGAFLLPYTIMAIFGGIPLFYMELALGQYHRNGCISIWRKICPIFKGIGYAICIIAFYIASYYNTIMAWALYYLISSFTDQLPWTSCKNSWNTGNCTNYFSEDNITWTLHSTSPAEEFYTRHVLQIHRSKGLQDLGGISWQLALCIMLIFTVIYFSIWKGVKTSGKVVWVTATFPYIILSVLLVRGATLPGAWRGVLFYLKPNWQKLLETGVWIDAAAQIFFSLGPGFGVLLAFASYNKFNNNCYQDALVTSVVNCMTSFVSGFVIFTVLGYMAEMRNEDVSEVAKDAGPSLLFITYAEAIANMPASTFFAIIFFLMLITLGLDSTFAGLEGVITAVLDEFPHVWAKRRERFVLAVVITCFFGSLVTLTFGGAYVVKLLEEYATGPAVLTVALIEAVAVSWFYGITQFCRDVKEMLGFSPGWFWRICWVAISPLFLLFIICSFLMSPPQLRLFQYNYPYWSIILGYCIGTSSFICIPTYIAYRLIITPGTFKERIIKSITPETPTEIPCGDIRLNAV

pKi (hSERT [1]) | IC50 (hNET [2]) [nM] | IC50 (hSERT [3]) [nM] | pKi (hNET [4]) | SMILES
≥ 8.00 | ≤ 316 | ≤ 10 | ≥ 6.50 | COc1c(O[C@H](C2CC2)[C@H]2CCNC2)ccc(Cl)c1Cl [Example 16-56, (S)-3-[(R)cyclopropyl-(3,4-dichloro-2-methoxyphenoxy)methyl]pyrrolidine]
≥ 8.00 | ≤ 10 | ≤ 10 | ≥ 8.00 | Fc1ccc(Cl)c(Cl)c1O[C@@H](C1CC1)[C@H]1CCNC1 [Example 16-59, (S)-3-[(S)cyclopropyl-(2,3-dichloro-6-fluorophenoxy)methyl]pyrrolidine]
≥ 8.00 | ≤ 10 | ≤ 10 | ≥ 8.00 | Fc1ccc(Cl)c(Cl)c1O[C@H](C1CC1)[C@H]1CCNC1 [Example 16-60, (S)-3-[(R)cyclopropyl-(2,3-dichloro-6-fluorophenoxy)methyl]pyrrolidine]
≥ 8.00 | ≤ 10 | ≤ 100 | ≥ 8.00 | Cc1ccc(F)c(O[C@@H](C2CC2)[C@H]2CCNC2)c1Cl [Example 16-62, (S)-3-[(S)-(2-Chloro-6-fluoro-3-methylphenoxy)cyclopropylmethyl]pyrrolidine]
≥ 8.00 | ≤ 10 | ≤ 100 | ≥ 8.00 | Cc1ccc(F)c(O[C@H](C2CC2)[C@H]2CCNC2)c1Cl [Example 16-63, (S)-3-[(R)-(2-Chloro-6-fluoro-3-methylphenoxy)cyclopropylmethyl]pyrrolidine]
≥ 8.00 | ≤ 10 | ≤ 10 | ≥ 8.00 | COc1ccc(F)c(O[C@@H](C2CC2)[C@H]2CCNC2)c1Cl [Example 16-64, (S)-3-[(S)-(2-Chloro-6-fluoro-3-methoxyphenoxy)cyclopropylmethyl]pyrrolidine]
≥ 8.00 | ≤ 10 | ≤ 100 | ≥ 8.00 | Fc1ccc(Cl)c(F)c1O[C@@H](C1CC1)[C@H]1CCNC1 [Example 16-66, (S)-3-[(S)-(3-Chloro-2,6-difluorophenoxy)cyclopropylmethyl]pyrrolidine]
≥ 8.00 | ≤ 10 | ≤ 100 | ≥ 8.00 | Fc1ccc(Cl)c(F)c1O[C@H](C1CC1)[C@H]1CCNC1 [Example 16-67, (S)-3-[(R)-(3-Chloro-2,6-difluorophenoxy)cyclopropylmethyl]pyrrolidine]
≥ 8.00 | ≤ 100 | ≤ 10 | ≥ 7.00 | Cc1cc(O[C@@H](C2CC2)[C@H]2CCNC2)c(Cl)cc1Cl [Example 16-72, (S)-3-[(S)cyclopropyl-(2,4-dichloro-5-methylphenoxy)methyl]pyrrolidine]
≥ 8.00 | ≤ 10 | ≤ 10 | ≥ 8.00 | COc1cc(Cl)c(F)cc1O[C@@H](C1CC1)[C@H]1CCNC1 [Example 16-74, (S)-3-[(S)-(4-Chloro-5-fluoro-2-methoxyphenoxy)cyclopropylmethyl]pyrrolidine]
≥ 8.00 | ≤ 10 | ≤ 10 | ≥ 8.00 | Fc1cc(Cl)cc(F)c1O[C@H](C1CC1)[C@H]1CCNC1 [Example 16-80, (S)-3-[(R)-(4-Chloro-2,6-difluorophenoxy)cyclopropylmethyl]pyrrolidine]
≥ 8.00 | ≤ 10 | ≤ 100 | ≥ 8.00 | Clc1cccc(O[C@@H](C2CC2)[C@H]2CCNC2)c1 [Example 16-84, (S)-3-[(S)-(3-Chlorophenoxy)cyclopropylmethyl]pyrrolidine]
≥ 8.00 | ≤ 10 | ≤ 100 | ≥ 8.00 | Clc1cccc(O[C@H](C2CC2)[C@H]2CCNC2)c1 [Example 16-85, (S)-3-[(R)-(3-Chlorophenoxy)cyclopropylmethyl]pyrrolidine]
≥ 8.00 | ≤ 10 | ≤ 10 | ≥ 8.00 | Clc1ccc(O[C@@H](C2CC2)[C@H]2CCNC2)cc1Cl [Example 16-87, (S)-3-[(S)cyclopropyl-(3,4-dichlorophenoxy)methyl]pyrrolidine]
≥ 8.00 | ≤ 10 | ≤ 10 | ≥ 8.00 | Clc1ccc(O[C@H](C2CC2)[C@H]2CCNC2)cc1Cl [Example 16-88, (S)-3-[(R)cyclopropyl-(3,4-dichlorophenoxy)methyl]pyrrolidine]
≥ 8.00 | ≤ 10 | ≤ 10 | ≥ 8.00 | Cc1cc(O[C@@H](C2CC2)[C@H]2CCNC2)ccc1Cl [Example 16-94, (S)-3-[(S)-(4-Chloro-3-methylphenoxy)cyclopropylmethyl]pyrrolidine]

Second part, the compound before the results:

SMILES | pKi (hSERT [1]) | IC50 (hNET [2]) [nM] | IC50 (hSERT [3]) [nM] | pKi (hNET [4])
Cc1c(Cl)cccc1O[C@@H](CC(C)C)[C@@H]1CCNC1 [Example 10-32, (R)-3-[(S)-1-(3-Chloro-2-methylphenoxy)-3-methylbutyl]pyrrolidine] | ≥ 8.00 | ≤ 10 | ≤ 10 | ≥ 8.00
Cc1c(Cl)cccc1O[C@@H](CC(C)C)[C@H]1CCNC1 [Example 10-33, (S)-3-[(S)-1-(3-Chloro-2-methylphenoxy)-3-methylbutyl]pyrrolidine] | ≥ 8.00 | ≤ 10 | ≤ 10 | ≥ 8.00
CC(C)C[C@@H](Oc1c(Cl)cccc1Cl)[C@H]1CCNC1 [Example 10-55, (S)-3-[(R)-1-(2,6-Dichlorophenoxy)-3-methylbutyl]pyrrolidine] | ≥ 8.00 | ≤ 10 | ≤ 100 | ≥ 8.00
CC(C)C[C@H](Oc1c(Cl)cccc1Cl)[C@@H]1CCNC1 [Example 10-56, (R)-3-[(S)-1-(2,6-Dichlorophenoxy)-3-methylbutyl]pyrrolidine] | ≥ 8.00 | ≤ 100 | ≤ 100 | ≥ 8.00
CC(C)C[C@H](Oc1cc(Cl)cc(Cl)c1)[C@@H]1CCNC1 [Example 10-80, (R)-3-[(S)-1-(3,5-Dichlorophenoxy)-3-methylbutyl]pyrrolidine] | ≥ 8.00 | ≤ 10 | ≤ 10 | ≥ 8.00
Clc1ccccc1O[C@@H](C1CC1)[C@H]1CCNC1 [Example 16-1, (S)-3-[(S)-(2-Chlorophenoxy)cyclopropylmethyl]pyrrolidine] | ≥ 8.00 | ≤ 10 | ≤ 100 | ≥ 8.00
Clc1ccccc1O[C@H](C1CC1)[C@H]1CCNC1 [Example 16-2, (S)-3-[(R)-(2-Chlorophenoxy)cyclopropylmethyl]pyrrolidine] | ≥ 8.00 | ≤ 10 | ≤ 100 | ≥ 8.00
Fc1c(Cl)cccc1O[C@@H](C1CC1)[C@H]1CCNC1 [Example 16-11, (S)-3-[(S)-(3-Chloro-2-fluorophenoxy)cyclopropylmethyl]pyrrolidine] | ≥ 8.00 | ≤ 10 | ≤ 10 | ≥ 8.00
Cc1cccc(O[C@@H](C2CC2)[C@H]2CCNC2)c1C [Example 16-12, (S)-3-[(S)cyclopropyl-(2,3-dimethylphenoxy)-methyl]pyrrolidine] | ≥ 8.00 | ≤ 10 | ≤ 10 | ≥ 8.00
CCOc1cc(Cl)ccc1O[C@@H](C1CC1)[C@H]1CCNC1 [Example 16-41, (S)-3-[(S)-(4-Chloro-2-ethoxyphenoxy)cyclopropylmethyl]pyrrolidine] | ≥ 8.00 | ≤ 10 | ≤ 100 | ≥ 8.00
CCOc1cc(Cl)ccc1O[C@H](C1CC1)[C@H]1CCNC1 [Example 16-42, (S)-3-[(R)-(4-Chloro-2-ethoxyphenoxy)cyclopropylmethyl]pyrrolidine] | ≥ 8.00 | ≤ 100 | ≤ 100 | ≥ 7.00
Fc1ccc(O[C@@H](C2CC2)[C@H]2CCNC2)c(F)c1F [Example 16-46, (S)-3-[(S)cyclopropyl-(2,3,4-trifluorophenoxy)methyl]pyrrolidine] | ≥ 8.00 | ≤ 10 | ≤ 10 | ≥ 8.00
Fc1ccc(O[C@H](C2CC2)[C@H]2CCNC2)c(F)c1F [Example 16-47, (S)-3-[(R)cyclopropyl-(2,3,4-trifluorophenoxy)methyl]pyrrolidine] | ≥ 8.00 | ≤ 10 | ≤ 10 | ≥ 7.00
Cc1ccc(O[C@@H](C2CC2)[C@H]2CCNC2)c(F)c1F [Example 16-50, (S)-3-[(S)cyclopropyl-(2,3-difluoro-4-methylphenoxy)methyl]pyrrolidine] | ≥ 8.00 | ≤ 10 | ≤ 10 | ≥ 8.00
Fc1c(Cl)ccc(O[C@@H](C2CC2)[C@H]2CCNC2)c1Cl [Example 16-52, (S)-3-[(S)cyclopropyl-(2,4-dichloro-3-fluorophenoxy)methyl]pyrrolidine] | ≥ 8.00 | ≤ 10 | ≤ 10 | ≥ 8.00
Fc1ccc(O[C@@H](C2CC2)[C@H]2CCNC2)c(F)c1Cl [Example 16-53, (S)-3-[(S)-(3-Chloro-2,4-difluorophenoxy)cyclopropylmethyl]pyrrolidine] | ≥ 8.00 | ≤ 10 | ≤ 10 | ≥ 8.00
COc1c(F)ccc(O[C@@H](C2CC2)[C@H]2CCNC2)c1F [Example 16-54, (S)-3-[(S)cyclopropyl-(2,4-difluoro-3-methoxyphenoxy)methyl]pyrrolidine] | ≥ 8.00 | ≤ 10 | ≤ 10 | ≥ 8.00
